Consider 32 compounds from ChEMBL document CHEMBL3992533, “α-Ketothioamide Derivatives: A Promising Tool to Interrogate Phosphoglycerate Dehydrogenase (PHGDH)” (J Med Chem, 2017).

Each structure is given as a SMILES string. Activity calls are given as the source filed them. The rule behind the calls is not given here.

Assay [1] concerns the target T1, D-3-phosphoglycerate dehydrogenase (Homo sapiens) (UniProt O43175).
T1 sequence (whole entry): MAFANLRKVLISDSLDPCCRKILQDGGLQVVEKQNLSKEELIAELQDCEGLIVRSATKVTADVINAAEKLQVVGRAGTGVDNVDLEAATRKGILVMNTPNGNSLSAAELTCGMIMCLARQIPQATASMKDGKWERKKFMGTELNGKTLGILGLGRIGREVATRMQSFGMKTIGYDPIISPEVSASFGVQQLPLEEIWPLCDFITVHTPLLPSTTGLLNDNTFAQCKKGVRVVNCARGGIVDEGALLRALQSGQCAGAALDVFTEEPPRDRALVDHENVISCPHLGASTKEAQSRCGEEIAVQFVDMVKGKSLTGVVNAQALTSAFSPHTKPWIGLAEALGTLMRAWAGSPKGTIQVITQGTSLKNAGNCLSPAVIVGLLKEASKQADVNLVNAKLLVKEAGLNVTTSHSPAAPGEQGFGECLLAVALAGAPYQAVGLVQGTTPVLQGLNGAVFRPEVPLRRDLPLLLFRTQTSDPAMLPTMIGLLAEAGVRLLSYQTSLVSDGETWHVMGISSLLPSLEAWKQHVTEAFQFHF
Description: Inhibition of recombinant human C-terminal His-tagged PHGDH (1 to 533 residues) expressed in Escherichia coli assessed as reduction in NADH formation at 100 uM using 3-phosphoglycerate as substrate preincubated measured for 7 mins in presence of NAD+ by spectrophotometric method relative to control.

Assay [2] addresses T2, D-3-phosphoglycerate dehydrogenase (Homo sapiens, UniProt O43175).
T2 sequence (O43175 whole entry): T1 sequence (whole entry)
Description: Inhibition of recombinant human C-terminal His-tagged PHGDH (1 to 533 residues) expressed in Escherichia coli assessed as reduction in NADH formation using 3-phosphoglycerate as substrate in presence of NAD+ by resorufin fluorescence based PSAT1/diaphorase/PSPH coupled enzyme assay.

In another assay the test system is MDA-MB-231. Description: Cytotoxicity against PHGDH deficient human MDA-MB-231 cells assessed as reduction in cell viability after 5 days by presto blue assay. In kind it is functional, cell-based. As to conditions: MDA-MB-231, 120 h.
The subject of another assay is HL-60. Description: Cytotoxicity against PHGDH knockout human HL60 cells assessed as reduction in cell viability after 5 days by presto blue assay. In kind it is functional, cell-based. To be noted: HL-60, 120 h.
Assay [3] deals with T1, D-3-phosphoglycerate dehydrogenase (Homo sapiens). Description: Ratio of IC50 for inhibition of PHGDH in human HL60 cells assessed as reduction in cell viability in serine repleted medium to IC50 for inhibition of PHGDH in human HL60 cells assessed as reduction in cell viability in serine depleted medium. In kind it is cell-based.
For assay [4] the target is unchanged. Description: Ratio of IC50 for inhibition of PHGDH in human SiHa cells assessed as reduction in cell viability in serine repleted medium to IC50 for inhibition of PHGDH in human SiHa cells assessed as reduction in cell viability in serine depleted medium. In kind it is cell-based.
Assay [5] concerns the target T2, D-3-phosphoglycerate dehydrogenase. Description: Non-competitive inhibition of recombinant human C-terminal His-tagged PHGDH (1 to 533 residues) expressed in Escherichia coli assessed as reduction in NADH formation preincubated for 30 mins followed by varying levels of 3-phosphoglycerate substrate addition in presence of constant NAD+ concentration by resorufin fluorescence based PSAT1/diaphorase/PSPH coupled enzyme assay.

The target in assay [6] is T1, D-3-phosphoglycerate dehydrogenase (Homo sapiens). As to conditions: 160 uM.
Assay [7] deals with T2, D-3-phosphoglycerate dehydrogenase. Description: Non-competitive inhibition of recombinant human C-terminal His-tagged PHGDH (1 to 533 residues) expressed in Escherichia coli assessed as reduction in NADH formation preincubated for 30 mins followed by constant concentration of 3-phosphoglycerate substrate addition in presence of varying levels of NAD+ by resorufin fluorescence based PSAT1/diaphorase/PSPH coupled enzyme assay.

Take `O=C1C=CC(=O)C=C1`: the inhibition in assay [1] came to 100%.
With `S=C(Nc1ccccc1)NC1CCCCC1`, in assay [1], the inhibition came to 28%.
Take `O=C(C(=S)N1CCOCC1)c1ccccc1I`: the IC50 in assay [2] was greater than 200 µM.
Turning to `S=C(NC1CCCCC1)Sc1ccccc1`, the inhibition in [1] came to 51%.
Consider `O=C(C(=S)N1CCOCC1)c1ccccc1Cl`, for which the results for the IC50 (in the assay with MDA-MB-231; in the assay with HL-60; in assay [2]) were greater than 100 µM, greater than 100 µM and greater than 200 µM, respectively.
For `O=C(C(=S)N1CCOCC1)c1ccc(I)cc1`, the IC50 is greater than 100 µM with MDA-MB-231, greater than 100 µM in the assay with HL-60 and 178 µM in [2]. For the same compound, the Ratio IC50 in [3] and in [4] was 2.8 each time.
Turning to `O=C1C=CC(=O)c2ccccc21`, the inhibition in assay [1] was 95%.
Turning to `O=C(C(=S)N1CCOCC1)c1ccccc1F`, the IC50 in assay [2] was greater than 200 µM.
Consider `S=C(c1ccc(Cl)c(Cl)c1)N1CCOCC1` [(3,4-DICHLOROPHENYL)(MORPHOLINO)METHANETHIONE], for which the IC50 with MDA-MB-231 and with HL-60 was greater than 100 µM throughout. In addition, the inhibition in assay [1] worked out at 96%.
Take `c1ccc(C2CNCCO2)cc1` (configuration not stated): the inhibition in assay [1] worked out at 61%.
In the case of `O=C(C(=S)N1CCOCC1)c1cccc(Br)c1`, the IC50 in [2] is greater than 200 µM.
As to `O=C(C(=S)N1CCOCC1)c1ccc(Cl)cc1`, the results for the IC50 (in the assay on MDA-MB-231; in the assay on HL-60; in [2]) were greater than 100 µM, greater than 100 µM and 8.7 µM, respectively. Further, the Ratio IC50 was found to be 3.3 in [3] and 3.2 in assay [4].
For `O=C(C(=S)N1CCOCC1)c1ccc([N+](=O)[O-])cc1`, the IC50 in the assay with MDA-MB-231 was greater than 100 µM; in the assay on HL-60, greater than 100 µM; in assay [2], 35.1 µM. Also, the Ratio IC50 in [3] is 2.9; in assay [4], 3.
As for `O=C(C(=S)N1CCOCC1)c1cccc(F)c1`, the IC50 in [2] is greater than 200 µM.
Regarding `O=C(C(=S)N1CCOCC1)c1ccc(-c2ccccc2)cc1`, the IC50 in assay [2] is greater than 200 µM.
With `Cc1cc(C)nc(NC(=O)c2ccc([N+](=O)[O-])cc2)n1`, the inhibition in [1] worked out at 13%.
As for `FC(F)(F)c1cc(NC(=S)N2CCN(Cc3ccccc3)CC2)cc(C(F)(F)F)c1`, in assay [1], the inhibition stood at 80%.
Take `O=C(N1CCN(c2ccccc2)CC1)n1nnc2ccccc21`: the inhibition in [1] stood at 37%.
Consider `O=C(C(=S)N1CCOCC1)c1ccccc1`, for which the figures for the IC50 (in the assay on MDA-MB-231; in the assay on HL-60; in assay [2]) were greater than 100 µM, greater than 100 µM and 30.9 µM, respectively. Further, the Ki in [5] was 40 µM; in assay [7] it was 27 µM. For the same compound, in assay [6], the inhibition result was “Active”. Moreover, the Ratio IC50 in [4] amounted to 9.1.
`O=C(NC(c1ccccc1)c1ccccc1)c1ccc([N+](=O)[O-])cc1`: the inhibition in assay [1] came to 54%.
Turning to `O=C(C(=S)N1CCOCC1)c1cccc([N+](=O)[O-])c1`, in [2], the IC50 amounted to 88.1 µM.
For the compound `CCCCCN1C(=O)NC(c2ccccc2)(c2ccccc2)C1=O`, in assay [1], the inhibition turned out to be 25%.
`O=C(C(=S)N1CCOCC1)c1cccc(Cl)c1`: the IC50 in the assay on MDA-MB-231 is greater than 100 µM; in the assay on HL-60, greater than 100 µM; in [2], greater than 200 µM.
In the case of `O=C(C(=S)N1CCOCC1)c1cccc(I)c1`, the IC50 in [2] is greater than 200 µM.
For `O=C(C(=S)N1CCOCC1)c1ccc(Br)cc1`, the IC50 is greater than 100 µM with MDA-MB-231, greater than 100 µM in the assay with HL-60 and 131 µM in assay [2]. In addition, the Ratio IC50 in assay [3] was determined as 2.2; in assay [4], 2.6.
For `Nc1nc2c(s1)CCCC2`, the inhibition in [1] turned out to be 46%.
The same measure, in the same setting: the figure for `COc1ccc(S(=O)(=O)N2CCNCC2)cc1` is 35%.
Regarding `O=C(C(=S)N1CCOCC1)c1ccccc1[N+](=O)[O-]`, the IC50 in assay [2] is greater than 200 µM.
As for `O=C(C(=S)N1CCOCC1)c1ccc(F)cc1`, the IC50 was greater than 100 µM in the assay on MDA-MB-231, greater than 100 µM in the assay with HL-60 and 68.9 µM in [2]. Further, the Ratio IC50 in assay [3] is 1.5; in assay [4], greater than 2.3.
In the case of `O=C(C(=S)N1CCOCC1)c1ccccc1Br`, the IC50 in assay [2] was found to be 161 µM.
Regarding `O=C1C=CC(=O)N1c1ccccc1Cl`, the inhibition in [1] amounted to 78%.
For the compound `O=C(Nc1ccccc1[N+](=O)[O-])c1ccc(Cl)cc1`, the figures for the IC50 (with MDA-MB-231; with HL-60; in [2]) were greater than 100 µM, greater than 100 µM and 75.2 µM, respectively. Further, in assay [1], the inhibition was found to be 59%.
